Test results reported in US12350473B2 (priority 2018, dated 2025).
Where two headings read alike, the source gives them in different places.

Columns and labels:
[1] = in vivo; cited from earlier work
[2] = in vivo, cited from earlier work
[3] = in vivo; cited from earlier work; remark: listed apart in the source
morphine effects = conditions: cited from earlier work
[4] = system: quadriceps femoris muscle injection site; assay: Example 13: GLP local tolerance study of naloxone following intramuscular injection; format: in vivo, New Zealand White Rabbits; conditions: for injection site findings: 7-day observation
Description: Mortality and clinical observations were recorded twice daily. […] On Day 8, the animals were euthanized and subject to a necropsy examination. A full tissue list was preserved, but only the test site and contralateral site in the other quadriceps femoris were processed for histopathological evaluation.

opioid overdose = assay: Examples 10-12: high dose naloxone injection in emergency room opioid overdose cases; format: in vivo, human
Description: (§1) A person is admitted to a local emergency room suffering from an opioid overdose. A high dose naloxone composition is administered by injection to the person.
as §1

[5] = system: buprenorphine intravenous induced respiratory depression; conditions: 5 mg and 10 mg naloxone intravenously; cited from earlier work
respiratory depression = conditions: IV morphine […] reversed with naloxone 0.4 mg; cited from earlier work

## CC(=O)Oc1ccc2c3c1O[C@H]1[C@@H](OC(C)=O)C=C[C@H]4[C@@H](C2)N(C)CC[C@@]341 [heroin]
[1]
  half-life: 3 to 7 h

## CN1CC[C@]23c4c5ccc(O)c4O[C@H]2[C@@H](O)C=C[C@H]3[C@H]1C5 [morphine]
[2]; iv
  analgesic onset: 6 min
  duration of action: 96 min
[2]
  duration of action: Longer

## C=CCN1CC[C@]23c4c5ccc(O)c4O[C@H]2C(=O)CC[C@@]3(O)[C@H]1C5 [naloxone]
[3]
  distribution half-life: 4.7 min
  elimination half-life (average): 1.08 h
Morphine effects; 30 mg i.m. naloxone
  reversal of morphine effects at the 30 mg dose: no additional reversal
Morphine effects; intra-muscular, 70 kg subject, morphine 18 or 30 mg/70 kg i.m.
  naloxone dose up to which reversal of the morphine effects was dose related: up to 10 mg
[4]; males receiving 15 mg/animal, attributed to the shaving procedure
  erythema at injection site: low incidence of slight erythema
[4]; rabbits, 5 mg/0.5 mL three times (15 mg total dose), Day 8 necropsy
  histology: effect on the examined tissue: no evidence
[4]; rabbits, IM injection in 3 sites each 2 mg/0.4 mL (total 6 mg)
  injection site findings: no injection site findings attributed to treatment
[4]; rabbits, IM injection in 3 sites each 5 mg/0.5 mL (total 15 mg)
  injection site findings: no injection site findings attributed to treatment
Opioid overdose; Example 10: person, 5 mg in a single injection
  outcome of opioid overdose: recovers from the overdose event
Opioid overdose; Example 11: person, 10 mg in a single injection
  outcome of opioid overdose: recovers from the overdose event
Opioid overdose; Example 12: person, 20 mg in a single injection
  outcome of opioid overdose: recovers from the overdose event
[5]
  reversal of opioid effects: Complete reversal
Respiratory depression
  return to severe respiratory depression after reversal: ≤ 30 min
